Laboratory results reported in ChEMBL document CHEMBL5154721, “Discovery of HDAC6-Selective Inhibitor NN-390 with in Vitro Efficacy in Group 3 Medulloblastoma” (J Med Chem, 2022).
Activity calls are given as the source filed them. The rule behind the calls is not given here.

Legend:
[1] = tested on: MV4-11; assay: Induction of apoptosis in human MV4-11 cells assessed as early apoptotic cells at 0.75 uM after 24 hrs by Annexin V/PI staining based flow cytometric analysis (Rvb=2%); assay type: functional
[2] = biological target: T1, Protein deacetylase HDAC6 (Homo sapiens) (UniProt Q9UBN7); assay: Inhibition of full length human recombinant HDAC6 in human MV4-11 cells assessed as increase in acetylation of histone H3 for 6 hrs by immunofluorescence imaging method; assay type: cell-based; conditions: dose 0.1-2 µM, DDE = dose-dependent effect
T1 sequence (whole entry): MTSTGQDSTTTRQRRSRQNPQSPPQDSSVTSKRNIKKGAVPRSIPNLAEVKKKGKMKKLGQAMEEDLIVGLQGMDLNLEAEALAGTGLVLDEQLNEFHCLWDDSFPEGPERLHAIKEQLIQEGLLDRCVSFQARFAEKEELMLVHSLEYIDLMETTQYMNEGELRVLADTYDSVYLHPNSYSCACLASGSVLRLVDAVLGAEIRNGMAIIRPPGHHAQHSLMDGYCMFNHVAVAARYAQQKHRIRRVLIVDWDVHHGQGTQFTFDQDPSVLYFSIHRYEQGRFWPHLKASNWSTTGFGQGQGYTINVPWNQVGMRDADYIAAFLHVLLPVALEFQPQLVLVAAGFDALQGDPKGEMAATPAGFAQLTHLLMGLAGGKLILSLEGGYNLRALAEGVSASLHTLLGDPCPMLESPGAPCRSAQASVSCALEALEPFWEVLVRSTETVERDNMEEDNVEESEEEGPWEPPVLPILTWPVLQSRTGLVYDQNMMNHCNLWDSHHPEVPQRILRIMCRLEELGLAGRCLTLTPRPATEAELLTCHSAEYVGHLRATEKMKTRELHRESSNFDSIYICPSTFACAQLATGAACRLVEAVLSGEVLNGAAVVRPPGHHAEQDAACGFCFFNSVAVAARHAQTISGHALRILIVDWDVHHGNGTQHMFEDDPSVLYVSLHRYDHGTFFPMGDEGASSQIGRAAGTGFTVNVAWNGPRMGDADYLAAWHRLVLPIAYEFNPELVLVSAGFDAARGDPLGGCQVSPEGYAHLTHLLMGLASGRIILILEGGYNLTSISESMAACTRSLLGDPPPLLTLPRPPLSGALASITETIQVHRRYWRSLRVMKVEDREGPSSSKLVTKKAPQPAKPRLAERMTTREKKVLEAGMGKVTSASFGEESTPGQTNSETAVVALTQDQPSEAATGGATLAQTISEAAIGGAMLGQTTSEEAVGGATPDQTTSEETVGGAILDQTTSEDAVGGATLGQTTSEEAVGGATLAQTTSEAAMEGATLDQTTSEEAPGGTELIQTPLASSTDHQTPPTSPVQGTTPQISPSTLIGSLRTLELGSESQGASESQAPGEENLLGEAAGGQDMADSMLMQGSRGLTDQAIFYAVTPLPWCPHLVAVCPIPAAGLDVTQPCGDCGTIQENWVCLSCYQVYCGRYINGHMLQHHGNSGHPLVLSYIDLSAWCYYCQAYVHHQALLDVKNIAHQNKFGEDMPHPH

[3] = biological target: Histone deacetylase 1 (Homo sapiens, UniProt Q13547); assay: Inhibition of full length human recombinant HDAC1 expressed in Sf9 baculovirus system using FAM-labeled acetylated peptide as substrate by measuring fluorescence intensity by EMSA method
Sequence of Histone deacetylase 1 (Q13547 whole entry): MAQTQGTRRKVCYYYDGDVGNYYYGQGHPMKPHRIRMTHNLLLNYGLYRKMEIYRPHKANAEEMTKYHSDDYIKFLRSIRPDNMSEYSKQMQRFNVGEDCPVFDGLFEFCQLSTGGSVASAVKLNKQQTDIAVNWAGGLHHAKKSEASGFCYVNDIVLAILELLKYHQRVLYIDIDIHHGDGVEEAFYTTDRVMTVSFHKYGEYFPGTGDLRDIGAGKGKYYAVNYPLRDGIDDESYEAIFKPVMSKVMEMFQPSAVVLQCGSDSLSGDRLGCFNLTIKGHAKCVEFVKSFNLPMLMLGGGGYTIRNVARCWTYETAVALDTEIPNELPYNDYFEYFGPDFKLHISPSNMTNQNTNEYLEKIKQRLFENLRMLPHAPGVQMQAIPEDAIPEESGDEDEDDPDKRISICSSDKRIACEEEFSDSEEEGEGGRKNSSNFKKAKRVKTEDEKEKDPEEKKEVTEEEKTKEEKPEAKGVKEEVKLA

[4] = Lipophilicity, logP of the compound; assay type: physicochemical; conditions: octanol/water
[5] = tested on: MV4-11; assay: Induction of apoptosis in human MV4-11 cells assessed as early apoptotic cells at 0.25 uM after 24 hrs by Annexin V/PI staining based flow cytometric analysis (Rvb=2%); assay type: functional
[6] = biological target: T2, Polyamine deacetylase HDAC10 (Homo sapiens, UniProt Q969S8); assay: Inhibition of full length human recombinant HDAC10 expressed in Sf9 baculovirus system using FAM-labeled acetylated peptide as substrate by measuring fluorescence intensity
T2 sequence (Q969S8 whole entry): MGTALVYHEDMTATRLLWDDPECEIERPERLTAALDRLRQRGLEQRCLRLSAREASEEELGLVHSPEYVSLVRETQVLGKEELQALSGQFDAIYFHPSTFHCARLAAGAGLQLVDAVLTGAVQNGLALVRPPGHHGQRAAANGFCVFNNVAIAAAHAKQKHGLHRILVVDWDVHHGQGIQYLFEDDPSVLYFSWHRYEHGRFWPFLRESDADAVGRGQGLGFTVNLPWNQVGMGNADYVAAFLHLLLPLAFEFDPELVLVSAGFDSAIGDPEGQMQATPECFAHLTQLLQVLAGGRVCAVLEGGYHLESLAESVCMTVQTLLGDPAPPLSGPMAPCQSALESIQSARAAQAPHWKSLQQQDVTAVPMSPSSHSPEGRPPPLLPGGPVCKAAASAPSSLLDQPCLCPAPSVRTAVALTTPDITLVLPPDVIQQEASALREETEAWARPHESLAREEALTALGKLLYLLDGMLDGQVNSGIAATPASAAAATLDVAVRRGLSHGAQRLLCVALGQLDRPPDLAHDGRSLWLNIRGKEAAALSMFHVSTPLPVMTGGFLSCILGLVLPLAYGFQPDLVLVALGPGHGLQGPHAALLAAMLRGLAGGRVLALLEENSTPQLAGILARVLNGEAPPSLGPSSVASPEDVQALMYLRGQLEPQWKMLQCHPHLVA

[7] = tested on: MV4-11; assay: Induction of apoptosis in human MV4-11 cells assessed as late apoptotic cells at 0.25 uM after 24 hrs by Annexin V/PI staining based flow cytometric analysis (Rvb=8.13%); assay type: functional
[8] = tested on: MV4-11; assay: Induction of apoptosis in human MV4-11 cells assessed as early apoptotic cells at 1 uM after 24 hrs by Annexin V/PI staining based flow cytometric analysis (Rvb=2%); assay type: functional
[9] = biological target: T1, Protein deacetylase HDAC6 (Homo sapiens); assay: Inhibition of full length human recombinant HDAC6 in human HD-MB03 cells assessed as increase in acetylation of alpha tubulin at 53 nM for 6 hrs by western blotting anlaysis; assay type: cell-based
[10] = Cytotoxicity against human primary pooled fibroblasts cells assessed as inhibition of cell growth incubated for 72 hrs measured by spectrophotometer analysis; assay type: toxicity, cell-based, Fibroblast
[11] = tested on: MV4-11; assay: Induction of apoptosis in human MV4-11 cells assessed as late apoptotic cells at 0.75 uM after 24 hrs by Annexin V/PI staining based flow cytometric analysis (Rvb=2%); assay type: functional
[12] = biological target: Histone deacetylase 2 (Homo sapiens, UniProt Q92769); assay: Inhibition of full length human recombinant HDAC2 expressed in Sf9 baculovirus system using FAM-labeled acetylated peptide as substrate by measuring fluorescence intensity by EMSA method
Sequence of Histone deacetylase 2 (Q92769 whole entry): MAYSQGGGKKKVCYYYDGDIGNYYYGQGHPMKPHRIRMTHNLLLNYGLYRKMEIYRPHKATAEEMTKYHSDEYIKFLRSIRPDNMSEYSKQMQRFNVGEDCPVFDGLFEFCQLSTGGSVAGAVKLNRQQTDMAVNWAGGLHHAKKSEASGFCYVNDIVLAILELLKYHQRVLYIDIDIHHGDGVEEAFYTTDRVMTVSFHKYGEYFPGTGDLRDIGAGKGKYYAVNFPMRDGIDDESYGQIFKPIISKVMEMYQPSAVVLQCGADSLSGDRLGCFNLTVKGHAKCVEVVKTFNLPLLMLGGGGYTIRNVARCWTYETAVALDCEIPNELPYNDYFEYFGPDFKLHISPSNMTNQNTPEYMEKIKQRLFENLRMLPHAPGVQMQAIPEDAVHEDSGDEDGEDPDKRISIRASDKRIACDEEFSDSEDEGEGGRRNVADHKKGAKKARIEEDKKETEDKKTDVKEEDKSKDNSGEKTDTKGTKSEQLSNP

[13] = tested on: MV4-11; assay: Induction of apoptosis in human MV4-11 cells assessed as early apoptotic cells at 2 uM after 24 hrs by Annexin V/PI staining based flow cytometric analysis (Rvb=2%); assay type: functional
[14] = Cytotoxicity against human HD-MB03 cells assessed as inhibition of cell growth incubated for 72 hrs measured by spectrophotometer analysis; assay type: functional, cell-based; conditions: HD-MB03, 72 h
[15] = tested on: MV4-11; assay: Induction of apoptosis in human MV4-11 cells assessed as viable cells at 1 uM after 24 hrs by Annexin V/PI staining based flow cytometric analysis (Rvb=58.28%); assay type: functional; conditions: read-out: Activity

CC(C)N(Cc1ccc(C(=O)NO)cc1)S(=O)(=O)c1cc(F)c(F)c(F)c1F
Activity [1]: 2.28% | inhibition [2]: Dde | IC50 [3]: > 5 µM | logP [4]: 3.41 | Activity [5]: 3.6% | IC50 [6]: > 5 µM | Activity [7]: 9% | Activity [8]: 3.32% | inhibition [9]: Active | IC50 at 72 h [10]: 8.8 µM | Activity [11]: 7.81% | IC50 [12]: 0.316 µM | Activity [13]: 3.59% | IC50 [14]: 0.13 µM | viability at 1 µM [15]: 56.3%
